For assay [1], the target named is Glycogen synthase kinase-3 alpha (Homo sapiens, UniProt P49840). Put plainly: Selectivity interaction (Rxn Biology Kinase assay) EUB0001632a GSK3A. To be noted: at 10 µM.
For assay [2], the target named is Serine/threonine-protein kinase PRP4 homolog (Homo sapiens) (UniProt Q13523). As to the kind of experiment: Selectivity interaction (Kinase panel (KiNativ target engagement assay in Jurkat cells)) EUB0001635a PRPF4. It is filed as cell-based. The conditions noted are these: Selectivity number of off-targets 0.0, Selectivity number of targets 233.0, Source Knowledge https://www.sciencedirect.com/science/article/pii/S2451945619300674?via%3Dihub, at 1 µM.
Chain of Serine/threonine-protein kinase PRP4 homolog (Homo sapiens) (Q13523 whole entry): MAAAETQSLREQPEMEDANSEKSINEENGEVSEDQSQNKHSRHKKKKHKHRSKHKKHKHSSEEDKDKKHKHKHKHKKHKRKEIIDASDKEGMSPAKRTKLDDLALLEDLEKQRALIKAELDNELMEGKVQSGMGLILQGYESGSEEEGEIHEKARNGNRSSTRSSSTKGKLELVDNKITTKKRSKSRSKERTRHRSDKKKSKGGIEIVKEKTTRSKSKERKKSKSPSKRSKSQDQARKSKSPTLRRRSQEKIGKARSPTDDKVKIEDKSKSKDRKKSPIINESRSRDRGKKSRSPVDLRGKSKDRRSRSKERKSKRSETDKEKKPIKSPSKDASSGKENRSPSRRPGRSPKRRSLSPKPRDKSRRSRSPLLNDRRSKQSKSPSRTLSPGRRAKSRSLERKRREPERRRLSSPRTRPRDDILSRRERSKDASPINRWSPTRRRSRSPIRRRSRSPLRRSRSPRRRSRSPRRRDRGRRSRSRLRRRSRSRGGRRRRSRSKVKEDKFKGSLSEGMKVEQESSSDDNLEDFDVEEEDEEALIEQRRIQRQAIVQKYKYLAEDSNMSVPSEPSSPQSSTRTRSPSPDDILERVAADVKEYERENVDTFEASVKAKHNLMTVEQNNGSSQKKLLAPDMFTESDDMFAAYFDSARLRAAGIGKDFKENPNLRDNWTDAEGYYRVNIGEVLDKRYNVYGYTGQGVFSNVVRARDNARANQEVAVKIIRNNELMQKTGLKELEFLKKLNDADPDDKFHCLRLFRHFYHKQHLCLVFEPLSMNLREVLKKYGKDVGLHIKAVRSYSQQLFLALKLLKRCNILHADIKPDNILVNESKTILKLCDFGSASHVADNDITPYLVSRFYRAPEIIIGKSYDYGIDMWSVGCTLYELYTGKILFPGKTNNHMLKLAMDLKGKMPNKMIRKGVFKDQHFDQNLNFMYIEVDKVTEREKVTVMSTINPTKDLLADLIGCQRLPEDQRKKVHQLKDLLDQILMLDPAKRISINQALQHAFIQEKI

In assay [3] the target is Tyrosine-protein kinase Fgr (Homo sapiens) (UniProt P09769). Put plainly: Selectivity interaction (KinomeScan (DiscoverX)) EUB0001619a FGR. The conditions noted are these: at 1 µM.
Chain of Tyrosine-protein kinase Fgr (Homo sapiens) (P09769 2-529 limits assumed): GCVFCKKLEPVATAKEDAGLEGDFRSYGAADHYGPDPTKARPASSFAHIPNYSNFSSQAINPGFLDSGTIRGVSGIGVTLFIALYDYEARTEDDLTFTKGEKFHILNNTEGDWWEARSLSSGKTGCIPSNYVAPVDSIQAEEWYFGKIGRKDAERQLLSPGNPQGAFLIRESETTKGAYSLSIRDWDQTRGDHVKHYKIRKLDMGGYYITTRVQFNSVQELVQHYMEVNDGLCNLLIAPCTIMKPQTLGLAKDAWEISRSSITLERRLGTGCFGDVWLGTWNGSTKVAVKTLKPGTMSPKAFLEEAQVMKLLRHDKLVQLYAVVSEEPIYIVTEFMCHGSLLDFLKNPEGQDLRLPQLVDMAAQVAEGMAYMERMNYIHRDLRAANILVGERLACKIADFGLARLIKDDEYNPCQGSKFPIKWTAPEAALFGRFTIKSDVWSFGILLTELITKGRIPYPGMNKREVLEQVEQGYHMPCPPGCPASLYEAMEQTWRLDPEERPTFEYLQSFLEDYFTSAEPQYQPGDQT
Assay [4] has as its target Serine/threonine-protein kinase MARK2 (Homo sapiens) (UniProt Q7KZI7). Put plainly: Selectivity interaction (Kinase screening (Nanosyn)) EUB0000604a MARK2.
Assay [5] concerns the target Protein polybromo-1 (Homo sapiens) (UniProt Q86U86). As to the kind of experiment: Selectivity interaction (Bromodomain panel (DSF asssay)) EUB0000270b PBRM1.
Assay [6] deals with T1, Serine/threonine-protein kinase 36 (Homo sapiens) (UniProt Q9NRP7).
T1 sequence (whole entry): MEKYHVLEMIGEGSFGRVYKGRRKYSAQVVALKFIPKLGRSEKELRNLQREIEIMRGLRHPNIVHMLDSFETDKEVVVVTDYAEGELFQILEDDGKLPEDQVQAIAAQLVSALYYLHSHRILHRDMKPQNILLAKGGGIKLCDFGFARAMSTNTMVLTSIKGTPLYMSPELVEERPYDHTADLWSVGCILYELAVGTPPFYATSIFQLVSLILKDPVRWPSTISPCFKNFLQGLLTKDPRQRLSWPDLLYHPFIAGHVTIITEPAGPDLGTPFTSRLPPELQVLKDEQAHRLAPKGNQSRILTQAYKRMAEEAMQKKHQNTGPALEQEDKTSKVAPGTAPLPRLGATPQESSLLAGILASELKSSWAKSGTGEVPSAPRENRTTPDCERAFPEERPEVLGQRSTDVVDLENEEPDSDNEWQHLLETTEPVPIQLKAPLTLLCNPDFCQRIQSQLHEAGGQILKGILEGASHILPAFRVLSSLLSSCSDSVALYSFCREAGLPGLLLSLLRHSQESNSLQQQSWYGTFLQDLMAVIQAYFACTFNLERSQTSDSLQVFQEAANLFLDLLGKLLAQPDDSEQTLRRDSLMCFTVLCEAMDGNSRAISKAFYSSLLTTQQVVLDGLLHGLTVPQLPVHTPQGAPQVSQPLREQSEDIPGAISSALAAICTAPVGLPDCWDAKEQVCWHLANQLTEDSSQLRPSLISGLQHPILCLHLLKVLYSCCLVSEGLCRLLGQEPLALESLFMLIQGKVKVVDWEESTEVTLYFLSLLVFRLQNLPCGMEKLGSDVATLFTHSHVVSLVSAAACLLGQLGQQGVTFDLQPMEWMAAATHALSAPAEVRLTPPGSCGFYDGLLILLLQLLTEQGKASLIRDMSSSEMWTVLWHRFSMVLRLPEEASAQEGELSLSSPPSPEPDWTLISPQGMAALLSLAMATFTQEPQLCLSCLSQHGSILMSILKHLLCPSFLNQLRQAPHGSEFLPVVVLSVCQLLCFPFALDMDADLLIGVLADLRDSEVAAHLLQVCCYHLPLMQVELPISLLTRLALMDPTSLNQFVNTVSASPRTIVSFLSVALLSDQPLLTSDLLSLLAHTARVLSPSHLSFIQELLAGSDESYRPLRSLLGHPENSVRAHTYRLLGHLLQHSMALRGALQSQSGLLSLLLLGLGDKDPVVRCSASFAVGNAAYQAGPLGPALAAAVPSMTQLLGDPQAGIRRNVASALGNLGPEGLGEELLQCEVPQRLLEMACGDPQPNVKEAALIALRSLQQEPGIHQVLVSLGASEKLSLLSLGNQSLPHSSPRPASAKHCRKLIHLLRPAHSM
As to the kind of experiment: Selectivity interaction (KinomeScan (DiscoverX)) EUB0000092b STK36. The conditions noted are these: at 10 µM.

In assay [7] the target is T2, Mitogen-activated protein kinase kinase kinase 19 (Homo sapiens) (UniProt Q56UN5).
T2 sequence (whole entry): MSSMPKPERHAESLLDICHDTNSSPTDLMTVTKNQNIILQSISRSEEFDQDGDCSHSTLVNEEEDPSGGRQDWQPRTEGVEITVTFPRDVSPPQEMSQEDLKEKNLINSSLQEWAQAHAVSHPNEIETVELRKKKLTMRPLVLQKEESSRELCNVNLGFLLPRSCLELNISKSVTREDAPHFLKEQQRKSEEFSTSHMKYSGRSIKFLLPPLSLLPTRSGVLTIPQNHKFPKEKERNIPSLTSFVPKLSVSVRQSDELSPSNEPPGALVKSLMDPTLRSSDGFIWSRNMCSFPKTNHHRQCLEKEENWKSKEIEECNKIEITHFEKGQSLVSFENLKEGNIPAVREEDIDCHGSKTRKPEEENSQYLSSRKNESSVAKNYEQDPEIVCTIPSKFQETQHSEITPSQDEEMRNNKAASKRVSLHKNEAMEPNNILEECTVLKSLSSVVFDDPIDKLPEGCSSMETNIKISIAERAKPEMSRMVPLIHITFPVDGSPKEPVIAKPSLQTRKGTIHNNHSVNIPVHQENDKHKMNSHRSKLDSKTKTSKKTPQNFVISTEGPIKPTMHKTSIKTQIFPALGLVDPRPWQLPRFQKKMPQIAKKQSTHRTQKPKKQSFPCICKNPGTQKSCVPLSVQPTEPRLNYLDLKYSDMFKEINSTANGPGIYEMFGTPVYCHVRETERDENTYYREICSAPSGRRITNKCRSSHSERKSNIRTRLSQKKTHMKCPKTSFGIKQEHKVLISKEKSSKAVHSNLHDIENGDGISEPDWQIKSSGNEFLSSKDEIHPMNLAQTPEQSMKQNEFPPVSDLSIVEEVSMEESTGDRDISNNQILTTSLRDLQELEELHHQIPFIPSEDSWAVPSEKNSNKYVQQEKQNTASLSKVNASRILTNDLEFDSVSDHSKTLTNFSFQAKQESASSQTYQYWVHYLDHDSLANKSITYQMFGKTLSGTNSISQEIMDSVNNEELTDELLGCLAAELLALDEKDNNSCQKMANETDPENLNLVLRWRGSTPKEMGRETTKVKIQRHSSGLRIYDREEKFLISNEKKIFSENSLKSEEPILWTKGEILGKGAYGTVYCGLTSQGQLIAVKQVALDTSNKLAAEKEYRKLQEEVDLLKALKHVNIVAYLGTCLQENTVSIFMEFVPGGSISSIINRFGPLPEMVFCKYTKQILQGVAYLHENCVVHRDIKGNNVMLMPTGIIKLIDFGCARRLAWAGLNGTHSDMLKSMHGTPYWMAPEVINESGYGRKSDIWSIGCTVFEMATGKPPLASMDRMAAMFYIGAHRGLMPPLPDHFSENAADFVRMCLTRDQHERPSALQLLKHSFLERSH
As to the kind of experiment: Selectivity interaction (KinomeScan (DiscoverX)) EUB0000618a MAP3K19. To be noted: at 10 µM.

Chain of Protein polybromo-1 (Homo sapiens) (Q86U86 whole entry): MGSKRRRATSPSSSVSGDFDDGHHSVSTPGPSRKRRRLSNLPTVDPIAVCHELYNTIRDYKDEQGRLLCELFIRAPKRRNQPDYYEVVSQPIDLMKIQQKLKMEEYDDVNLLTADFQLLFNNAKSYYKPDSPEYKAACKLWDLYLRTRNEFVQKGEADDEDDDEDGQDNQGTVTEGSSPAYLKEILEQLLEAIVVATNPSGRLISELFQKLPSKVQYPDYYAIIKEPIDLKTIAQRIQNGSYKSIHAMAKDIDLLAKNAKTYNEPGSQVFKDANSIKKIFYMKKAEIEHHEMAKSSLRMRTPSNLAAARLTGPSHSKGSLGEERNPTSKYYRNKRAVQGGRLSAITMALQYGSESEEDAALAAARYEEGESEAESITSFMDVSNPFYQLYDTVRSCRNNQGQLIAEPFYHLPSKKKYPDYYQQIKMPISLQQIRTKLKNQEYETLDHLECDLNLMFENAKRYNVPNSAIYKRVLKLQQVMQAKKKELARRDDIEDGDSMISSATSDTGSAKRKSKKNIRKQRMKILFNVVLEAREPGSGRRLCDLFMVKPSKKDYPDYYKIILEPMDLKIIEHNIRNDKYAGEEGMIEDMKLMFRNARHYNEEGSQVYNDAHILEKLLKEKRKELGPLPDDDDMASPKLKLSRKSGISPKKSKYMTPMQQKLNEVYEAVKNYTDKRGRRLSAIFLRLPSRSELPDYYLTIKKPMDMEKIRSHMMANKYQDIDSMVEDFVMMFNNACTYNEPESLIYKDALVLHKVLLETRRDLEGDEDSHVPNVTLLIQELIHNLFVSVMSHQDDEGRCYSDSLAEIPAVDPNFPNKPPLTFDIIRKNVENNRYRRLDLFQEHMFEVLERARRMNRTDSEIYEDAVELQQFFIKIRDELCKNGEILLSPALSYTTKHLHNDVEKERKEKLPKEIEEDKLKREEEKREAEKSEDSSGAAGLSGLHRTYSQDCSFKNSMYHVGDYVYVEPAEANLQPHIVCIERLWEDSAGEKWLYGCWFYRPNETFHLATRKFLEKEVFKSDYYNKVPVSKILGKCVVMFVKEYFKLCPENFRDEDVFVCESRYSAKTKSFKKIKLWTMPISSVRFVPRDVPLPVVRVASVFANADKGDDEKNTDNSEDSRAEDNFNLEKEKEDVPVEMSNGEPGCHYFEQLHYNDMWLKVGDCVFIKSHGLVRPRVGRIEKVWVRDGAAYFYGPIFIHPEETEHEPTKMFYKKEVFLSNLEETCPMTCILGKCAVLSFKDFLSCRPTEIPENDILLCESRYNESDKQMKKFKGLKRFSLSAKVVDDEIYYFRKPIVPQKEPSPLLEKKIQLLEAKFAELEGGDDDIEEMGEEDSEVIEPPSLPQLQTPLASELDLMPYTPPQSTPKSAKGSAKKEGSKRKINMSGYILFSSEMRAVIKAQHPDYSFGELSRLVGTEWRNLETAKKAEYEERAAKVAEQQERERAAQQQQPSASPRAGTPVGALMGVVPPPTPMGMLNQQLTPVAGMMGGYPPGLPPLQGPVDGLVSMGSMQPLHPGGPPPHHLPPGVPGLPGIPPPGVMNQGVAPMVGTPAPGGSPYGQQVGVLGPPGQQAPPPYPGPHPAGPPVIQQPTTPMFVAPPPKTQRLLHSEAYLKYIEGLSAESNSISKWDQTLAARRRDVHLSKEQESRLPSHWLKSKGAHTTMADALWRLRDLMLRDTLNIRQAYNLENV
Chain of Serine/threonine-protein kinase MARK2 (Homo sapiens) (Q7KZI7 whole entry): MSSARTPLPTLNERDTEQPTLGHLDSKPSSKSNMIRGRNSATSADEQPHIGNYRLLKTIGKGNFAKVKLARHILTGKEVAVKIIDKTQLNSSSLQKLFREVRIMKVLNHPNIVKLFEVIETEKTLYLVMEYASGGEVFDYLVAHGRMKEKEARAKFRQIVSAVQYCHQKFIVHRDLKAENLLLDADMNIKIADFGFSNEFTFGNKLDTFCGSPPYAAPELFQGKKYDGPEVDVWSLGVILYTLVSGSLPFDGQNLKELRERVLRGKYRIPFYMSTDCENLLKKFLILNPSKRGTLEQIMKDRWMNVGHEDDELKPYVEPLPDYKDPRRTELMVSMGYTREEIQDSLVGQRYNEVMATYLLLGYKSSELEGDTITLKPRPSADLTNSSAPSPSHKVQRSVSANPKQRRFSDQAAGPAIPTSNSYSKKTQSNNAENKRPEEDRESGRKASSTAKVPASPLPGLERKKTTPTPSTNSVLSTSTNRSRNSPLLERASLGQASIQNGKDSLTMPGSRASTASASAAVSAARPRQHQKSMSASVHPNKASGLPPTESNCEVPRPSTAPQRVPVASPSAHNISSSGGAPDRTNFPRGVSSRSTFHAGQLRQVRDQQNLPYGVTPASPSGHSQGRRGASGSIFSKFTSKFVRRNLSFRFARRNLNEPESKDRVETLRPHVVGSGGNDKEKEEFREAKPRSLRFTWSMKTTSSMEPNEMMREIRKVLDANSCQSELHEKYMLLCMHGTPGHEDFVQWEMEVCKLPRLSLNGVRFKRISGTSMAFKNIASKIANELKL
Chain of Glycogen synthase kinase-3 alpha (P49840 2-483 limits assumed): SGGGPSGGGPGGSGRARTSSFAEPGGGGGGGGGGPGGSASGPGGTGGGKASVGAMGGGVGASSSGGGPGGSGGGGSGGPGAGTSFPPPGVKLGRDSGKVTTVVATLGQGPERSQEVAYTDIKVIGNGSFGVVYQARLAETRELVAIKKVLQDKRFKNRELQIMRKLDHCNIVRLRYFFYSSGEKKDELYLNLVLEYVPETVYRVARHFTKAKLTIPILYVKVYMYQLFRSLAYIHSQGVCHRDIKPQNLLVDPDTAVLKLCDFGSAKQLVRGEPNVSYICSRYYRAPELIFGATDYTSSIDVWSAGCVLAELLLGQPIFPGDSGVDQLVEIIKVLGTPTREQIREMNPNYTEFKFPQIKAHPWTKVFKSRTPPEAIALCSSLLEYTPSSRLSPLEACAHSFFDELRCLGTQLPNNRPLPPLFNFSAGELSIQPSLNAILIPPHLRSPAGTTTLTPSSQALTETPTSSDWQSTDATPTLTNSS

In turn, `Cn1cc(-n2cnc3c(NCc4nc5cc(Cl)c(Cl)cc5[nH]4)nc(N4CCOCC4)nc32)cn1` gave a % of inhibition in assay [1] of 90.6%.
Turning to `C=CC(=O)Nc1ccc(C(=O)Nc2[nH]nc3c2CN(C(=O)N[C@H](CN(C)C)c2ccccc2)C3(C)C)cc1`, the % of engagement in assay [2] is -2.9%.
In assay [3], `N#Cc1cccc(-c2c[nH]c3ncnc(N4CCOCC4)c23)c1` displayed a % of control of 100%.
The compound `Cc1cnc(Nc2ccc(F)cc2Cl)nc1-c1c[nH]c(C(=O)N[C@H](CO)c2cccc(Cl)c2)c1` displayed a % of inhibition in assay [4] of 5%.
`Cc1cc(CN)cc(C)c1-c1ncn(C)c1-c1cncn1C` registered a dTM in assay [5] of -1.74 K.
Take `CCC(=O)N1CCN(c2ccc(-n3c(=O)ccc4cnc5ccc(-c6cnc7ccccc7c6)cc5c43)cc2C(F)(F)F)CC1`: the % of control in assay [6] is 17%.
As to `O[C@H]1CC[C@H](Nc2ncc3nc(Nc4c(F)cc(F)cc4F)n([C@H]4CCOC4)c3n2)CC1`, the % of control in assay [7] worked out at 47%.
